Laboratory results reported in US20240261365A1, “POLYPEPTIDE ALBUMIN NANOPARTICLE, PREPARATION METHOD THEREFOR, AND APPLICATION THEREOF” (SUZHOU INSTITUTE OF NANO-TECH AND NANO-BIONICS (SINANO) , …, priority 2020, published 2024).
Where two headings read alike, the source gives them in different places. Where a SMILES comes first, the peptide text is derived from it.

Columns and labels:
[1] = concentration in blood after tail vein injection, ICP-MASS of iridium; conditions: mouse, in vivo, BALB/c mice, 100 μL of 500 μM, read-out: elimination half-life in the blood
Protocol: 36 BALB/c mice were equally divided into two groups and injected with 100 μL of Ir-cR8 and Ir-cR8-HSA nanoparticles (500 μM) through tail veins, separately. After 0.5 h, 2 h, 4 h, 8 h, 24 h and 48 h, eyes were removed for blood sampling and centrifuged at 10000 rpm for 10 min. […] of centrifuged serum was added with 1 mL of high chlorine acid and 3 mL of aqua regia, digested at 260° C. for 2 h, and added with water to 10 mL. The content of metal iridium in the blood at each time point was detected by ICP-MASS.

[2] = system: Human cervical cancer cells, Hela cells; format: cell-based
Protocol: Human cervical cancer cells, Hela cells, were dispersed with a DMEM medium containing 10% fetal bovine serum and spread to a 96-well plate, 8000 cells per well. After the cells were attached to the walls, Ir-cR5, Ir-cR8 and Ir-aR8 of 2, 4, 8, 16, 32, 64 and 128 μM and the corresponding oligoarginine polypeptides cR5, cR8 and aR8 were added and incubated for 24 h. The cell activity was detected by a thiazole blue method and the half-maximal inhibitory concentration (IC50) was calculated.

[3] = biological target: T1, human serum albumin (HSA) (human, UniProt P02768 25-609); experiment: dynamic light scattering of peptide-albumin assembly
T1 construct: Dissolved in water and used in solution
Protocol: The detection was performed at 25° C. using the dynamic light scattering apparatus, and only the peaks of the formed polypeptide albumin nanoparticles were calculated.

T1 sequence (P02768 25-609 limits assumed): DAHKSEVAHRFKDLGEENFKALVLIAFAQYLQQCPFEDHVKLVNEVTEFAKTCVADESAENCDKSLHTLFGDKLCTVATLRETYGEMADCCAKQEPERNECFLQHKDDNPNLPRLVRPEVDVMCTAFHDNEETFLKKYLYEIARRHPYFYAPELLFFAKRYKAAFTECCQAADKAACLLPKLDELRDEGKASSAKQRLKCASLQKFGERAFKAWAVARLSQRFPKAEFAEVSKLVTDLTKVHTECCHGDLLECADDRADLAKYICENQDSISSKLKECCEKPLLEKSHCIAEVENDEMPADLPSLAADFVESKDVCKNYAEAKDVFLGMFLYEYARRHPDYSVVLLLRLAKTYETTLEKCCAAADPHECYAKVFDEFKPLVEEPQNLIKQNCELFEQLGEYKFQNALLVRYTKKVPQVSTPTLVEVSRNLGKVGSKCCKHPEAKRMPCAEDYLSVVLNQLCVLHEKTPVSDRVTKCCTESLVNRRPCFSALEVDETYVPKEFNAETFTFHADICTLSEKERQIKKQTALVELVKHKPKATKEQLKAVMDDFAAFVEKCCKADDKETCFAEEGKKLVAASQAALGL

Molecule | binding result [3] | other results
CC(=O)N[C@@H](Cc1c[nH]cn1)C(=O)N[C@@H](CCCNC(=N)N)C(=O)N[C@@H](CCCNC(=N)N)C(=O)N[C@@H](CCCNC(=N)N)C(=O)N[C@@H](CCCNC(=N)N)C(=O)N[C@@H](CCCNC(=N)N)C(=O)N[C@@H](CCCNC(=N)N)C(=O)N[C@@H](CCCNC(=N)N)C(=O)N[C@@H](CCCNC(=N)N)C(=O)N[C@@H](Cc1c[nH]cn1)C(N)=O [Ir-cR8] (Ac-HRRRRRRRRH-NH2) | – | half-life [1]: < 30 min
CC(=O)N[C@@H](Cc1c[nH]cn1)C(=O)N[C@@H](Cc1c[nH]cn1)C(=O)N[C@@H](CCCNC(=N)N)C(=O)N[C@@H](CCCNC(=N)N)C(=O)N[C@@H](CCCNC(=N)N)C(=O)N[C@@H](CCCNC(=N)N)C(=O)N[C@@H](CCCNC(=N)N)C(=O)N[C@@H](CCCNC(=N)N)C(=O)N[C@@H](CCCNC(=N)N)C(=O)N[C@@H](CCCNC(=N)N)C(N)=O [aR8] (Ac-HHRRRRRRRR-NH2; N-terminus and C-terminus assumed) | – | IC50 ([2]; 24 h): > 100 µM
CC(=O)NC(Cc1c[nH]cn1)C(=O)NC(CCCNC(=N)N)C(=O)NC(CCCNC(=N)N)C(=O)NC(CCCNC(=N)N)C(=O)NC(CCCNC(=N)N)C(=O)NC(CCCNC(=N)N)C(=O)NC(Cc1c[nH]cn1)C(N)=O (centres unmarked) [cR5] (Ac-HRRRRRH-NH2; configuration not given here) | – | IC50 ([2]; 24 h): > 100 µM
CC(=O)NC(Cc1c[nH]cn1)C(=O)NC(CCCNC(=N)N)C(=O)NC(CCCNC(=N)N)C(=O)NC(CCCNC(=N)N)C(=O)NC(CCCNC(=N)N)C(=O)NC(CCCNC(=N)N)C(=O)NC(CCCNC(=N)N)C(=O)NC(CCCNC(=N)N)C(=O)NC(CCCNC(=N)N)C(=O)NC(Cc1c[nH]cn1)C(N)=O (centres unmarked) [cR8] (Ac-HRRRRRRRRH-NH2; configuration not given here) | – | IC50 ([2]; Hela cells, incubated for 24 h, read-out: IC50): > 100 µM
Ac-KKKKHHKKKK-NH2 (also: coordinated with iridium complex from [Ir(ppy)2(H2O)2]OTf (1:1), also called Formula VII) [iridium-coordinated oligopolypeptide (Ir-mK8)] | binds | –
cholesterol-RRRRRRRR-NH2 [chol-RRRRRRRR (SEQ ID NO: 2)-CONH2 (CR)] | binds | –
Ac-HKKKKKKKKH-NH2 (also: coordinated with iridium complex from [Ir(ppy)2(H2O)2]OTf (1:1), also called Formula VIII) [iridium-coordinated oligopolypeptide (Ir-cK8)] | binds | –
Ac-FWLFLRRRRRRRR-NH2 [CH3CO-FWLFLRRRRRRRR (SEQ ID NO: 1)-CONH2 (FR)] | binds | –
